Assay results reported in PubChem BioAssay (NCI).
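1) Cells in 96-well plates. 2) Compound, 48 h, 5 concentrations. 3) Linear interpolation between surrounding doses. 4) Unreached endpoint = highest concentration. TGI denotes the concentration required for complete inhibition of growth.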

Assays:
Assay in all cases: DTP human tumour cell line panel, 48 h
KM20L2 colon = test system: KM20L2 colon
HT29 colon = test system: HT29 colon
OVCAR-4 ovarian = test system: OVCAR-4 ovarian
SNB-78 CNS = test system: SNB-78 CNS
LOX IMVI melanoma = test system: LOX IMVI melanoma
LXFL 529 NSCLC = test system: LXFL 529 NSCLC
ACHN renal = test system: ACHN renal
SR leukemia = test system: SR leukemia
HOP-62 NSCLC = test system: HOP-62 NSCLC
UO-31 renal = test system: UO-31 renal
SK-MEL-2 melanoma = test system: SK-MEL-2 melanoma
DLD-1 colon = test system: DLD-1 colon
SNB-19 CNS = test system: SNB-19 CNS
IGROV1 ovarian = test system: IGROV1 ovarian
MALME-3M melanoma = test system: MALME-3M melanoma
HOP-92 NSCLC = test system: HOP-92 NSCLC
RPMI-8226 leukemia = test system: RPMI-8226 leukemia
SF-295 CNS = test system: SF-295 CNS
A549 NSCLC = test system: A549 NSCLC
UACC-62 melanoma = test system: UACC-62 melanoma
SK-MEL-5 melanoma = test system: SK-MEL-5 melanoma
OVCAR-5 ovarian = test system: OVCAR-5 ovarian
SN12C renal = test system: SN12C renal
M14 melanoma = test system: M14 melanoma
CCRF-CEM leukemia = test system: CCRF-CEM leukemia
MOLT-4 leukemia = test system: MOLT-4 leukemia
SW-620 colon = test system: SW-620 colon
KM12 colon = test system: KM12 colon
HOP-18 NSCLC = test system: HOP-18 NSCLC
TK-10 renal = test system: TK-10 renal
UACC-257 melanoma = test system: UACC-257 melanoma
K-562 leukemia = test system: K-562 leukemia
COLO 205 colon = test system: COLO 205 colon
SK-MEL-28 melanoma = test system: SK-MEL-28 melanoma
NCI-H23 lung = test system: NCI-H23 lung
SNB-75 CNS = test system: SNB-75 CNS
HCT-116 colon = test system: HCT-116 colon
NCI-H522 lung = test system: NCI-H522 lung
OVCAR-3 ovarian = test system: OVCAR-3 ovarian
SF-539 CNS = test system: SF-539 CNS
SK-OV-3 ovarian = test system: SK-OV-3 ovarian
DMS 273 small cell lung = test system: DMS 273 small cell lung
HCT-15 colon = test system: HCT-15 colon
U251 CNS = test system: U251 CNS
SF-268 CNS = test system: SF-268 CNS
EKVX NSCLC = test system: EKVX NSCLC
CAKI-1 renal = test system: CAKI-1 renal
NCI-H460 lung = test system: NCI-H460 lung
M19-MEL melanoma = test system: M19-MEL melanoma
NCI-H226 lung = test system: NCI-H226 lung
HL-60(TB) leukemia = test system: HL-60(TB) leukemia
786-0 renal = test system: 786-0 renal
OVCAR-8 ovarian = test system: OVCAR-8 ovarian
HCC-2998 colon = test system: HCC-2998 colon
T-47D breast = test system: T-47D breast
DU-145 prostate = test system: DU-145 prostate
MCF7 breast = test system: MCF7 breast
MDA-MB-231 breast = test system: MDA-MB-231 breast
HS 578T breast = test system: HS 578T breast
MDA-N = test system: MDA-N
MDA-MB-435 = test system: MDA-MB-435
RXF 393 renal = test system: RXF 393 renal
BT-549 breast = test system: BT-549 breast
A498 renal = test system: A498 renal
NCI/ADR-RES ovarian = test system: NCI/ADR-RES ovarian
PC-3 prostate = test system: PC-3 prostate

Q: Which results are given for Cc1ccc(C(=O)c2nnc(C(=O)c3ccc(C)cc3)nn2)cc1?
A: TGI (KM20L2 colon): > 100 µM; TGI (HT29 colon): > 100 µM; TGI (OVCAR-4 ovarian): > 100 µM; TGI (SNB-78 CNS): > 100 µM; TGI (LOX IMVI melanoma): 35.6 µM; TGI (LXFL 529 NSCLC): > 100 µM; TGI (ACHN renal): > 100 µM; TGI (SR leukemia): 37.6 µM; TGI (HOP-62 NSCLC): > 100 µM; TGI (UO-31 renal): > 100 µM; TGI (SK-MEL-2 melanoma): > 100 µM; TGI (DLD-1 colon): > 100 µM; TGI (SNB-19 CNS): > 100 µM; TGI (IGROV1 ovarian): > 100 µM; TGI (MALME-3M melanoma): > 100 µM; TGI (HOP-92 NSCLC): > 100 µM; TGI (RPMI-8226 leukemia): > 100 µM; TGI (SF-295 CNS): > 100 µM; TGI (A549 NSCLC): > 100 µM; TGI (UACC-62 melanoma): > 100 µM; TGI (SK-MEL-5 melanoma): > 100 µM; TGI (OVCAR-5 ovarian): > 100 µM; TGI (SN12C renal): > 100 µM; TGI (M14 melanoma): 56.3 µM; TGI (CCRF-CEM leukemia): 50.8 µM; TGI (MOLT-4 leukemia): > 100 µM; TGI (SW-620 colon): 44.1 µM; TGI (KM12 colon): > 100 µM; TGI (HOP-18 NSCLC): > 100 µM; TGI (TK-10 renal): > 100 µM; TGI (UACC-257 melanoma): > 100 µM; TGI (K-562 leukemia): 55.8 µM; TGI (COLO 205 colon): > 100 µM; TGI (SK-MEL-28 melanoma): > 100 µM; TGI (NCI-H23 lung): > 100 µM; TGI (SNB-75 CNS): > 100 µM; TGI (HCT-116 colon): > 100 µM; TGI (NCI-H522 lung): > 100 µM; TGI (OVCAR-3 ovarian): > 100 µM; TGI (SF-539 CNS): > 100 µM; TGI (SK-OV-3 ovarian): 36.8 µM; TGI (DMS 273 small cell lung): > 100 µM; TGI (HCT-15 colon): > 100 µM; TGI (U251 CNS): > 100 µM; TGI (SF-268 CNS): 55.4 µM; TGI (EKVX NSCLC): > 100 µM; TGI (CAKI-1 renal): > 100 µM; TGI (NCI-H460 lung): 33.8 µM; TGI (M19-MEL melanoma): 61.5 µM; TGI (NCI-H226 lung): > 100 µM; TGI (HL-60(TB) leukemia): 48.2 µM; TGI (786-0 renal): > 100 µM; TGI (OVCAR-8 ovarian): > 100 µM; TGI (HCC-2998 colon): > 100 µM

Q: With CC1OC(O[C@@H]2OC=C(C=O)[C@@]3(O)CC[C@H](C)[C@@H]23)C(O)C(O)C1O (stereo partly drawn) as the molecule, how does the TGI (HT29 colon) read?
A: Its TGI is greater than 100 µM.

Q: What about the TGI (OVCAR-4 ovarian) of the same molecule?
A: The TGI was greater than 100 µM.

Q: What about the TGI (LOX IMVI melanoma) of the same molecule?
A: Its TGI is greater than 100 µM.

Q: And the TGI (ACHN renal)?
A: Its TGI is greater than 100 µM.

Q: And the TGI (SR leukemia)?
A: The TGI was greater than 100 µM.

Q: What about the TGI (HOP-62 NSCLC) of the same molecule?
A: The TGI was greater than 100 µM.

Q: And the TGI (T-47D breast)?
A: The TGI was greater than 100 µM.

Q: And the TGI (DU-145 prostate)?
A: Its TGI is greater than 100 µM.

Q: What about the TGI (UO-31 renal) of the same molecule?
A: The TGI was greater than 100 µM.

Q: What about the TGI (SK-MEL-2 melanoma) of the same molecule?
A: Its TGI is greater than 100 µM.

Q: And the TGI (SNB-19 CNS)?
A: Its TGI is greater than 100 µM.

Q: And the TGI (IGROV1 ovarian)?
A: Its TGI is greater than 100 µM.

Q: What about the TGI (MALME-3M melanoma) of the same molecule?
A: The TGI was greater than 100 µM.

Q: And the TGI (HOP-92 NSCLC)?
A: The TGI was greater than 100 µM.

Q: And the TGI (RPMI-8226 leukemia)?
A: Its TGI is greater than 100 µM.

Q: And the TGI (SF-295 CNS)?
A: Its TGI is greater than 100 µM.

Q: And the TGI (A549 NSCLC)?
A: Its TGI is greater than 100 µM.

Q: And the TGI (UACC-62 melanoma)?
A: Its TGI is greater than 100 µM.

Q: And the TGI (SK-MEL-5 melanoma)?
A: The TGI was greater than 100 µM.

Q: And the TGI (OVCAR-5 ovarian)?
A: Its TGI is greater than 100 µM.

Q: And the TGI (MCF7 breast)?
A: The TGI was greater than 100 µM.

Q: What about the TGI (MDA-MB-231 breast) of the same molecule?
A: Its TGI is greater than 100 µM.

Q: And the TGI (SN12C renal)?
A: The TGI was greater than 100 µM.

Q: And the TGI (M14 melanoma)?
A: The TGI was greater than 100 µM.

Q: And the TGI (HS 578T breast)?
A: The TGI was greater than 100 µM.

Q: And the TGI (CCRF-CEM leukemia)?
A: Its TGI is greater than 100 µM.

Q: What about the TGI (MOLT-4 leukemia) of the same molecule?
A: Its TGI is greater than 100 µM.

Q: What about the TGI (SW-620 colon) of the same molecule?
A: The TGI was greater than 100 µM.

Q: What about the TGI (KM12 colon) of the same molecule?
A: The TGI was greater than 100 µM.

Q: What about the TGI (TK-10 renal) of the same molecule?
A: The TGI was greater than 100 µM.

Q: What about the TGI (UACC-257 melanoma) of the same molecule?
A: The TGI was greater than 100 µM.

Q: And the TGI (MDA-N)?
A: Its TGI is greater than 100 µM.

Q: What about the TGI (K-562 leukemia) of the same molecule?
A: Its TGI is greater than 100 µM.

Q: And the TGI (COLO 205 colon)?
A: The TGI was greater than 100 µM.

Q: What about the TGI (SK-MEL-28 melanoma) of the same molecule?
A: Its TGI is greater than 100 µM.

Q: What about the TGI (MDA-MB-435) of the same molecule?
A: Its TGI is greater than 100 µM.

Q: What about the TGI (RXF 393 renal) of the same molecule?
A: The TGI was greater than 100 µM.

Q: What about the TGI (NCI-H23 lung) of the same molecule?
A: The TGI was greater than 100 µM.

Q: What about the TGI (BT-549 breast) of the same molecule?
A: The TGI was greater than 100 µM.

Q: And the TGI (SNB-75 CNS)?
A: Its TGI is greater than 100 µM.

Q: What about the TGI (HCT-116 colon) of the same molecule?
A: The TGI was greater than 100 µM.

Q: What about the TGI (NCI-H522 lung) of the same molecule?
A: The TGI was greater than 100 µM.

Q: What about the TGI (A498 renal) of the same molecule?
A: The TGI was greater than 100 µM.

Q: And the TGI (OVCAR-3 ovarian)?
A: The TGI was greater than 100 µM.

Q: What about the TGI (NCI/ADR-RES ovarian) of the same molecule?
A: Its TGI is greater than 100 µM.

Q: What about the TGI (SF-539 CNS) of the same molecule?
A: Its TGI is greater than 100 µM.

Q: And the TGI (SK-OV-3 ovarian)?
A: Its TGI is greater than 100 µM.

Q: What about the TGI (HCT-15 colon) of the same molecule?
A: The TGI was greater than 100 µM.

Q: And the TGI (PC-3 prostate)?
A: The TGI was greater than 100 µM.

Q: What about the TGI (U251 CNS) of the same molecule?
A: The TGI was greater than 100 µM.

Q: What about the TGI (SF-268 CNS) of the same molecule?
A: Its TGI is greater than 100 µM.

Q: And the TGI (EKVX NSCLC)?
A: The TGI was greater than 100 µM.

Q: What about the TGI (CAKI-1 renal) of the same molecule?
A: The TGI was greater than 100 µM.

Q: What about the TGI (NCI-H460 lung) of the same molecule?
A: The TGI was greater than 100 µM.

Q: And the TGI (NCI-H226 lung)?
A: The TGI was greater than 100 µM.

Q: And the TGI (HL-60(TB) leukemia)?
A: Its TGI is greater than 100 µM.

Q: What about the TGI (786-0 renal) of the same molecule?
A: Its TGI is greater than 100 µM.

Q: And the TGI (OVCAR-8 ovarian)?
A: The TGI was greater than 100 µM.

Q: And the TGI (HCC-2998 colon)?
A: Its TGI is greater than 100 µM.
